Laboratory results published in US7781186B2, “Screening methods using normal human liver cell line” (The United States of America as represented by the …, priority 2000, dated 2010).

Key:
[1] = test system: HepG2 cells; format: cell-based, human
Source text: (§1) The cell line of the invention can further be used in a method for assessing toxicity of chemicals or drugs using methods known in the art. For example, lactate dehydrogenase (LDH) leakage from cells into the culture medium is an established method to assess cell injury. Enzyme activity in the culture medium following exposure of cells to a chemical for a certain time will be expressed as percentage of the total of intra- and extracellular enzyme activity. Another example is the determination of cytochrome c release from mitochondria into the cytosol, which is a measure of mitochondria-mediated induction of lethal cell injury. Cells can be exposed to various concentrations of a chemical for various time points. The cells can then be harvested, homogenized, and mitochondria and cytosol isolated by differential centrifugation. The subcellular fractions can then be lysed, loaded onto SDS-PAGE gels, and probed with a specific antibody against cytochrome c.
To determine whether HC04 cells would respond to a standard hepatotoxicant in vitro, the concentration- and time-dependent toxicity of acetaminophen (APAP) was assessed and compared to that in HepG2 cells.

[2] = test system: HC04 cell line; assay: Acetaminophen-induced mPT-associated cytotoxicity in cultured immortalized human hepatocytes; format: cell-based
Experimental: Furthermore, the effects on the inductin of the mPT were assessed by monitoring large amplitude swelling at 540 nm. In addition, the effects of LEF were determined in cultured immortalized human hepatocytes (HC04 cell line).

[3] = test system: mouse liver mitochondria; assay: Mitochondrial inner transmembrane potential (ΔΨm), JC-1 probe, isolated liver mitochondria; format: biochemical; settings: in vitro
Experimental: To explore whether LEF (the prodrug) or its active metabolite […]-1726 alter mitochondrial function including the Ca^2+ dependent, cyclosporine A-sensitive mPT, we isolated mouse liver mitochondria and exposed them to LEF or […]-1726, and measured the concentration-dependent effects on the mitochondrial inner transmembrane potential (ΔΨm) using the cationic fluorescent probe, JC-1. Furthermore, the effects on the inductin of the mPT were assessed by monitoring large amplitude swelling at 540 nm.

[4] = test system: mitochondria; assay: mPT-mediated cytochrome c release from mitochondria; format: biochemical
Source text: as §1
Both LEF and A77-1726 attenuated the ΔΨm (at ≧1 uM).

[5] = test system: mitochondrial permeability transition pore; assay: Membrane permeability transition (mPT), large amplitude swelling at 540 nm, isolated liver mitochondria; format: biochemical, mouse
Experimental: To explore whether LEF (the prodrug) or its active metabolite A77-1726 alter mitochondrial function including the Ca^2+ dependent, cyclosporine A-sensitive mPT, we isolated mouse liver mitochondria and exposed them to LEF or A77-1726, and measured the concentration-dependent effects on the mitochondrial inner transmembrane potential (ΔΨm) using the cationic fluorescent probe, JC-1. Furthermore, the effects on the inductin of the mPT were assessed by monitoring large amplitude swelling at 540 nm. In addition, the effects of LEF were determined in cultured immortalized human hepatocytes (HC04 cell line).

| Compound | LDH release (indicative of cell injury) [1] | protection from acetaminophen-induced mPT-associated cytotoxicity [2] | uncoupling (summary) [3] | protection from mPT-mediated cytochrome c release from mitochondria [4] | inhibition of the mPT (summary) ([5]; in vitro) | protection from the mPT ([5]; mPT caused by KH2PO4 (2 mM)) | protection from the mPT ([5]; mPT caused by nimesulide (30 uM)) |
| --- | --- | --- | --- | --- | --- | --- | --- |
| CC(=O)Nc1ccc(O)cc1 [APAP, acetaminophen] | did not respond | – | – | – | – | – | – |
| Cc1oncc1C(=O)Nc1ccc(C(F)(F)F)cc1 [LEF, Leflunomide] | – | completely protected | weak uncouplers | protected | potent inhibitors | completely protected | completely protected |
